Reference: ChEMBL document CHEMBL1201862, “PubChem BioAssay data set” (2004)
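Exposure lasted 48 hours, with cells grown in 96-well plates and compounds tested at five concentrations. Here, GI50 denotes the concentration required for 50% inhibition of growth.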 Calls of active or inactive are those of the source. No stated cut-off is given here; in the data, active = GI50 up to about 1.1 µM and inactive = higher.

Columns and labels:
Assay in all cases: NCI-60 cell line screen, 48 h
ACHN = system: ACHN
CCRF-CEM = system: CCRF-CEM
DU-145 = system: DU-145
HCT-116 = system: HCT-116
HT-29 = system: HT-29
Hs-578T = system: Hs-578T
MCF7 = system: MCF7
NCI-H23 = system: NCI-H23
OVCAR-5 = system: OVCAR-5
PC-3 = system: PC-3
RPMI-8226 = system: RPMI-8226
SF-268 = system: SF-268
SF-539 = system: SF-539
SW-620 = system: SW-620
TK-10 = system: TK-10
U-251 = system: U-251
M14 = system: M14
RXF 393 = system: RXF 393
NCI-H226 = system: NCI-H226

| SMILES | GI50 (ACHN) | GI50 (CCRF-CEM) | GI50 (DU-145) | GI50 (HCT-116) | GI50 (HT-29) | GI50 (Hs-578T) | GI50 (MCF7) | GI50 (NCI-H23) | GI50 (OVCAR-5) | GI50 (PC-3) | GI50 (RPMI-8226) | GI50 (SF-268) | GI50 (SF-539) | GI50 (SW-620) | GI50 (TK-10) | GI50 (U-251) | GI50 (M14) | GI50 (RXF 393) | GI50 (NCI-H226) |
| --- | --- | --- | --- | --- | --- | --- | --- | --- | --- | --- | --- | --- | --- | --- | --- | --- | --- | --- | --- |
| c1ccc(C(NC2CCCCC2NCCNC2CCCCC2NC(c2ccccc2)(c2ccccc2)c2ccccc2)(c2ccccc2)c2ccccc2)cc1 (configuration not stated) | 90.2 µM (inactive) | 42.4 µM (inactive) | 96.6 µM (inactive) | 20.1 µM (inactive) | > 100 µM (inactive) | 11.7 µM (inactive) | 17.7 µM (inactive) | 20.9 µM (inactive) | > 100 µM (inactive) | 64 µM (inactive) | 7.8 µM (inactive) | 21.3 µM (inactive) | 44 µM (inactive) | 22.6 µM (inactive) | 90.4 µM (inactive) | 13.9 µM (inactive) | – | – | – |
| CCCCCCCCCCNC(=S)OC | 33.6 µM (inactive) | 24.3 µM (inactive) | – | 37.9 µM (inactive) | 34.3 µM (inactive) | – | – | > 100 µM (inactive) | – | – | 13.2 µM (inactive) | 63 µM (inactive) | 64.7 µM (inactive) | 42.8 µM (inactive) | 98.2 µM (inactive) | 33.1 µM (inactive) | 63.1 µM (inactive) | 33.7 µM (inactive) | – |
| Cc1ccc(C)c(N2C(=O)C(=O)C(c3nc4ccccc4o3)/C(=N\NC(=O)c3ccccc3O)C2=O)c1 (configuration not stated) | 12 µM (inactive) | 4.09 µM (inactive) | – | 17.5 µM (inactive) | 32.1 µM (inactive) | – | – | 10.7 µM (inactive) | 58.3 µM (inactive) | – | 37.6 µM (inactive) | 12.2 µM (inactive) | 19.1 µM (inactive) | 29.6 µM (inactive) | 44 µM (inactive) | 24.4 µM (inactive) | 32.3 µM (inactive) | – | 12.2 µM (inactive) |
| Clc1ccc(C[P+](c2ccccc2)(c2ccccc2)c2ccccc2)cc1Cl | 13.1 µM (inactive) | 3.07 µM (inactive) | – | 1.93 µM (inactive) | 1.91 µM (inactive) | – | – | 2.62 µM (inactive) | 5.27 µM (inactive) | – | – | 3.22 µM (inactive) | 4.4 µM (inactive) | 2.93 µM (inactive) | 5.05 µM (inactive) | 1.63 µM (inactive) | 2.6 µM (inactive) | – | 2.8 µM (inactive) |
| CCN(CC)CCCNC(=O)C1COc2cc(-c3cc(=O)c4ccccc4o3)ccc2O1 (configuration not stated) | 51.4 µM (inactive) | 43.8 µM (inactive) | – | 37.4 µM (inactive) | 41.7 µM (inactive) | – | – | > 100 µM (inactive) | 81.7 µM (inactive) | – | > 100 µM (inactive) | 42.9 µM (inactive) | 19.5 µM (inactive) | 48.5 µM (inactive) | 42.4 µM (inactive) | 37.8 µM (inactive) | 22.1 µM (inactive) | 39.8 µM (inactive) | 76 µM (inactive) |
| CN(O)C(=O)c1ccccc1 | > 100 µM (inactive) | > 100 µM (inactive) | – | > 100 µM (inactive) | > 100 µM (inactive) | – | – | > 100 µM (inactive) | > 100 µM (inactive) | – | > 100 µM (inactive) | > 100 µM (inactive) | > 100 µM (inactive) | > 100 µM (inactive) | > 100 µM (inactive) | > 100 µM (inactive) | > 100 µM (inactive) | > 100 µM (inactive) | > 100 µM (inactive) |
| O=C(O)Cc1cc(=O)[nH]c2c1/C(=N/O)CCC2 | > 100 µM (inactive) | > 100 µM (inactive) | – | – | > 100 µM (inactive) | – | – | > 100 µM (inactive) | > 100 µM (inactive) | – | > 100 µM (inactive) | > 100 µM (inactive) | > 100 µM (inactive) | > 100 µM (inactive) | > 100 µM (inactive) | > 100 µM (inactive) | > 100 µM (inactive) | > 100 µM (inactive) | > 100 µM (inactive) |
| CCOC(=O)Oc1c(OC)cc(C(=O)NC2CCc3cc(OC)c(OC)c(OC)c3-c3ccc(SC)c(=O)cc32)cc1OC (configuration not stated) | 0.537 µM (active) | < 0.007 µM (active) | – | 0.0566 µM (active) | 0.0484 µM (active) | – | – | 0.0439 µM (active) | – | – | – | 0.0916 µM (active) | 0.0245 µM (active) | 0.0419 µM (active) | 0.474 µM (active) | 0.0346 µM (active) | 0.138 µM (active) | – | 0.0471 µM (active) |
| C=C1C2Oc3ccccc3C1N(c1ccccc1)O2 (configuration not stated) | 37.2 µM (inactive) | 21.3 µM (inactive) | – | 20.3 µM (inactive) | 23 µM (inactive) | – | – | > 10 µM (inactive) | 80 µM (inactive) | – | 23.7 µM (inactive) | 28.8 µM (inactive) | 23.8 µM (inactive) | 34.8 µM (inactive) | 84.9 µM (inactive) | 27.2 µM (inactive) | 22.1 µM (inactive) | 30.9 µM (inactive) | 37.9 µM (inactive) |
| CCCCc1c2c(nc3c1CCCC3=O)C(=O)CCC2 | > 100 µM (inactive) | > 100 µM (inactive) | – | > 100 µM (inactive) | > 100 µM (inactive) | – | – | > 100 µM (inactive) | > 100 µM (inactive) | – | > 100 µM (inactive) | > 100 µM (inactive) | > 100 µM (inactive) | > 100 µM (inactive) | > 100 µM (inactive) | > 100 µM (inactive) | > 100 µM (inactive) | > 100 µM (inactive) | > 100 µM (inactive) |
| Cc1ccc([N+](=O)[O-])cc1NC(=O)C(=O)Cc1occc(=O)c1O | > 100 µM (inactive) | > 100 µM (inactive) | – | – | > 100 µM (inactive) | – | – | – | > 100 µM (inactive) | – | > 100 µM (inactive) | > 100 µM (inactive) | > 100 µM (inactive) | > 100 µM (inactive) | > 100 µM (inactive) | > 100 µM (inactive) | – | > 100 µM (inactive) | > 100 µM (inactive) |
| CCOC(=O)c1sc(Nc2cc(Cl)ccc2Cl)nc1C | 35.5 µM (inactive) | – | – | > 100 µM (inactive) | 50.2 µM (inactive) | – | – | 34.4 µM (inactive) | 37.3 µM (inactive) | – | 53.2 µM (inactive) | > 100 µM (inactive) | > 100 µM (inactive) | > 100 µM (inactive) | > 100 µM (inactive) | > 100 µM (inactive) | – | > 100 µM (inactive) | 83.2 µM (inactive) |
| O=c1c2ccc(S(=O)(=O)c3ccc4c(=O)n5c6ccccc6nc5c5cccc3c45)c3cccc(c32)c2nc3ccccc3n12 | 15.2 µM (inactive) | – | 59.6 µM (inactive) | > 100 µM (inactive) | > 100 µM (inactive) | – | > 100 µM (inactive) | 96.6 µM (inactive) | > 100 µM (inactive) | > 100 µM (inactive) | > 100 µM (inactive) | 33.5 µM (inactive) | 28.7 µM (inactive) | – | 21.8 µM (inactive) | 9.06 µM (inactive) | > 100 µM (inactive) | 14.3 µM (inactive) | 41.6 µM (inactive) |
| COc1ccc(-c2onc(-c3ccc([N+](=O)[O-])cc3)c2C2=NCCCN2)cc1 | > 100 µM (inactive) | > 100 µM (inactive) | – | 38.9 µM (inactive) | 40.3 µM (inactive) | – | – | > 100 µM (inactive) | > 100 µM (inactive) | – | > 100 µM (inactive) | > 100 µM (inactive) | > 100 µM (inactive) | > 100 µM (inactive) | – | > 100 µM (inactive) | 38.8 µM (inactive) | 88.1 µM (inactive) | 38.8 µM (inactive) |
| O=C(O)/C(Cl)=C(\Cl)C(=O)c1ccccc1 | > 100 µM (inactive) | > 100 µM (inactive) | – | > 100 µM (inactive) | > 100 µM (inactive) | – | – | > 100 µM (inactive) | > 100 µM (inactive) | – | – | > 100 µM (inactive) | > 100 µM (inactive) | > 100 µM (inactive) | > 100 µM (inactive) | > 100 µM (inactive) | > 100 µM (inactive) | > 100 µM (inactive) | > 100 µM (inactive) |
| CC(C)c1cccc2sc(NC(=O)C(=O)CC(=O)c3ccc(F)cc3)nc12 | > 100 µM (inactive) | > 100 µM (inactive) | – | > 100 µM (inactive) | > 100 µM (inactive) | – | – | > 100 µM (inactive) | > 100 µM (inactive) | – | > 100 µM (inactive) | > 100 µM (inactive) | > 100 µM (inactive) | > 100 µM (inactive) | > 100 µM (inactive) | > 100 µM (inactive) | > 100 µM (inactive) | > 100 µM (inactive) | > 100 µM (inactive) |
| CC1=C(C(=O)NCc2ccccc2)C(c2ccc(C3C(C(=O)NCc4ccccc4)=C(C)NC(C)=C3C(=O)NCc3ccccc3)cc2)C(C(=O)NCc2ccccc2)=C(C)N1 | 15.6 µM (inactive) | 3.39 µM (inactive) | – | 3.02 µM (inactive) | 5.61 µM (inactive) | – | – | 14.7 µM (inactive) | 23.7 µM (inactive) | – | 6.65 µM (inactive) | 15.1 µM (inactive) | 2.13 µM (inactive) | 10.2 µM (inactive) | 20.7 µM (inactive) | 3.96 µM (inactive) | 11.8 µM (inactive) | 16.6 µM (inactive) | 17.5 µM (inactive) |
| Cc1cc2nc3c(=O)n(C)c(=O)nc-3n(-c3ccc(Cl)cc3)c2cc1C | 11.4 µM (inactive) | 13.6 µM (inactive) | – | 11.9 µM (inactive) | 3.51 µM (inactive) | – | – | 3.81 µM (inactive) | 18.5 µM (inactive) | – | 6.37 µM (inactive) | 11.4 µM (inactive) | 11.2 µM (inactive) | 4.2 µM (inactive) | 31.9 µM (inactive) | 9.66 µM (inactive) | 3.29 µM (inactive) | – | 13.1 µM (inactive) |
| CC(Oc1ccc(OCC2CCCCC2)cc1)C(=O)N(CCO)CCO (configuration not stated) | > 100 µM (inactive) | > 100 µM (inactive) | – | > 100 µM (inactive) | > 100 µM (inactive) | – | – | > 100 µM (inactive) | – | – | – | > 100 µM (inactive) | 23.6 µM (inactive) | – | > 100 µM (inactive) | > 100 µM (inactive) | > 100 µM (inactive) | > 100 µM (inactive) | > 100 µM (inactive) |
